# Results as given in PubChem BioAssay AID2060483 (Molecular Pharmacology Branch, DTP, NCI, 2025).
# Test system: K24384-001-R-PDC complex spheroids, viability
# Assay: Anticancer human tumor K24384-001-R-PDC patient-derived pancreatic adenocarcinoma cell line growth inhibition [GQUAD]
# Details: for IC50: curve of first compound; for viability, T/C: stronger effect = lower value
# Method in brief: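 Multi-cell-type spheroids of tumor cells with HUVEC and mesenchymal stem cells, treated with drug combinations. Concentrations descend in half-log steps from near clinical Cmax, or from 10 microM where Cmax is unknown; viability read-out.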
# 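Also: spheroids exposed to compounds for seven days.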
structure (smiles),measurement,setting,value
C=CCn1c(=O)c2cnc(Nc3ccc(N4CCN(C)CC4)cc3)nc2n1-c1cccc(C(C)(C)O)n1 + CN(C)c1ccc(Nc2c3ccc(NC(=O)CCN4CCCC4)cc3nc3cc(NC(=O)CCN4CCCC4)ccc23)cc1,IC50,second compound 0.0316 µM,392 nM
same,IC50,second compound 0.1 µM,266 nM
same,IC50,second compound 0.316 µM,236 nM
same,IC50,second compound 1 µM,275 nM
same,IC50,second compound 3.16 µM,235 nM
same,IC50,second compound 10 µM,229 nM
same,"viability, T/C","second compound 0.0316 µM, first compound 0.0316 µM",85.5%
same,"viability, T/C","second compound 0.0316 µM, first compound 0.1 µM",81%
same,"viability, T/C","second compound 0.0316 µM, first compound 0.316 µM",57.3%
same,"viability, T/C","second compound 0.0316 µM, first compound 1 µM",18%
same,"viability, T/C","second compound 0.0316 µM, first compound 3.16 µM",15.9%
same,"viability, T/C","second compound 0.0316 µM, first compound 10 µM",17.9%
same,"viability, T/C","second compound 0.1 µM, first compound 0.0316 µM",76.2%
same,"viability, T/C","second compound 0.1 µM, first compound 0.1 µM",68.9%
same,"viability, T/C","second compound 0.1 µM, first compound 0.316 µM",47%
same,"viability, T/C","second compound 0.1 µM, first compound 1 µM",15.6%
same,"viability, T/C","second compound 0.1 µM, first compound 3.16 µM",14%
same,"viability, T/C","second compound 0.1 µM, first compound 10 µM",14.8%
same,"viability, T/C","second compound 0.316 µM, first compound 0.0316 µM",80.2%
same,"viability, T/C","second compound 0.316 µM, first compound 0.1 µM",86.7%
same,"viability, T/C","second compound 0.316 µM, first compound 0.316 µM",38.6%
same,"viability, T/C","second compound 0.316 µM, first compound 1 µM",16.3%
same,"viability, T/C","second compound 0.316 µM, first compound 3.16 µM",12%
same,"viability, T/C","second compound 0.316 µM, first compound 10 µM",14.5%
same,"viability, T/C","second compound 1 µM, first compound 0.0316 µM",76.7%
same,"viability, T/C","second compound 1 µM, first compound 0.1 µM",83.3%
same,"viability, T/C","second compound 1 µM, first compound 0.316 µM",45.9%
same,"viability, T/C","second compound 1 µM, first compound 1 µM",19.1%
same,"viability, T/C","second compound 1 µM, first compound 3.16 µM",12.2%
same,"viability, T/C","second compound 1 µM, first compound 10 µM",18%
same,"viability, T/C","second compound 3.16 µM, first compound 0.0316 µM",84.2%
same,"viability, T/C","second compound 3.16 µM, first compound 0.1 µM",80.3%
same,"viability, T/C","second compound 3.16 µM, first compound 0.316 µM",39.3%
same,"viability, T/C","second compound 3.16 µM, first compound 1 µM",19.3%
same,"viability, T/C","second compound 3.16 µM, first compound 3.16 µM",16.3%
same,"viability, T/C","second compound 3.16 µM, first compound 10 µM",13.6%
same,"viability, T/C","second compound 10 µM, first compound 0.0316 µM",63.5%
same,"viability, T/C","second compound 10 µM, first compound 0.1 µM",64.8%
same,"viability, T/C","second compound 10 µM, first compound 0.316 µM",44.5%
same,"viability, T/C","second compound 10 µM, first compound 1 µM",20%
same,"viability, T/C","second compound 10 µM, first compound 3.16 µM",16.9%
same,"viability, T/C","second compound 10 µM, first compound 10 µM",13.1%
